From paper PMC8284453 (Antimicrobial Agents and Chemotherapy, 2021)

Experiments:
Test in all cases: organism not typed
[1] = test system: Enterobacterales expressing class A ESBLs; type: cell-based, E. coli, K. pneumoniae; details: 25 isolates; BLI fixed at 4 μg/ml, AMC 2:1
[2] = test system: Enterobacterales expressing class A carbapenemases (KPC); type: cell-based, K. pneumoniae, E. coli, E. cloacae, Klebsiella oxytoca
[3] = test system: Enterobacterales expressing class D oxacillinases (OXA-48/48-like); type: cell-based, E. coli, K. pneumoniae; details: for MIC50 / MIC90: 25 isolates, BLI fixed at 4 μg/ml, AMC 2:1

C[C@@H](O)[C@H]1C(=O)N2C(C(=O)O)=C(S[C@H]3CC[S@@+]([O-])C3)S[C@H]12 [Sulopenem]
1 µg/mL: MIC ([3]; K. pneumoniae 6299 (OXA-163))
0.12 µg/mL: MIC50 [1]
2 µg/mL: MIC ([3]; K. pneumoniae 515746 (OXA-48), first line)
32 µg/mL: MIC50 ([2]; 25 isolates, BLI fixed at 4 μg/ml, AMC 2:1) | MIC ([2]; K. pneumoniae 847204 (KPC)) | MIC ([2]; K. pneumoniae 847375 (KPC)) | MIC ([2]; K. pneumoniae 847378 (KPC)) | MIC ([2]; K. pneumoniae 847383 (KPC)) | MIC ([2]; K. pneumoniae 847387 (KPC)) | MIC ([2]; K. pneumoniae 847747 (KPC)) | MIC ([2]; K. pneumoniae 848844 (KPC)) | MIC ([3]; K. pneumoniae DEL (OXA-232))
0.5 µg/mL: MIC90 [1]
8 µg/mL: MIC ([2]; K. pneumoniae 847379 (KPC)) | MIC ([2]; K. pneumoniae 897067 (KPC)) | MIC50 [3] | MIC ([3]; E. coli 664507 (OXA-48)) | MIC ([3]; E. coli 664520 (OXA-48)) | MIC ([3]; E. coli 664524 (OXA-48)) | MIC ([3]; E. coli 664526 (OXA-48)) | MIC ([3]; E. coli 664528 (OXA-48)) | MIC ([3]; K. pneumoniae 664438 (OXA-48)) | MIC ([3]; K. pneumoniae 664439 (OXA-48)) | MIC ([3]; K. pneumoniae 664518 (OXA-48)) | MIC ([3]; K. pneumoniae 722870 (OXA-48))
≥ 64 µg/mL: MIC90 ([2]; 25 isolates, BLI fixed at 4 μg/ml, AMC 2:1, listed as sulopenem) | MIC ([2]; E. cloacae 847426 (KPC)) | MIC ([2]; E. cloacae 847429 (KPC)) | MIC ([2]; E. cloacae OIMGH49 (p99 AmpC, ACT-2, KPC-2, TEM-1)) | MIC ([2]; E. coli 786978 (KPC)) | MIC ([2]; K. oxytoca 847537 (KPC)) | MIC ([2]; K. pneumoniae 155140 (AmpC, KPC-2, SHV-12, TEM-1)) | MIC ([2]; K. pneumoniae 845661 (KPC)) | MIC ([2]; K. pneumoniae 845662 (KPC)) | MIC ([2]; K. pneumoniae 845665 (KPC)) | MIC ([2]; K. pneumoniae 845667 (KPC)) | MIC ([2]; K. pneumoniae 847384 (KPC)) | MIC ([2]; K. pneumoniae 848832 (KPC)) | MIC ([3]; K. pneumoniae 664509 (OXA-48))
4 to 8 µg/mL: MIC50 ([3]; listed as sulopenem)
16 to 32 µg/mL: MIC90 ([3]; listed as sulopenem)
4 µg/mL: MIC ([2]; K. oxytoca 847539 (KPC)) | MIC ([3]; E. coli 664523 (OXA-48)) | MIC ([3]; E. coli SI-422 (OXA-48)) | MIC ([3]; E. coli VER (OXA-48)) | MIC ([3]; K. pneumoniae 515746 (OXA-48), second line) | MIC ([3]; K. pneumoniae BAH (OXA-204))
16 µg/mL: MIC ([2]; K. pneumoniae 845670 (KPC)) | MIC ([2]; K. pneumoniae 845904 (KPC)) | MIC ([2]; K. pneumoniae UMM (KPC-2, SHV-5, TEM-1)) | MIC90 [3] | MIC ([3]; E. coli 664516 (OXA-48)) | MIC ([3]; E. coli 664522 (OXA-48)) | MIC ([3]; E. coli 664525 (OXA-48)) | MIC ([3]; E. coli 787112 (OXA-48))
0.03 to 1 µg/mL: MIC range [1]
